Measured values: patent US20260083851A1 (AVILAR THERAPEUTICS, INC., priority 2022, published 2026)
Where two headings read alike, the source gives them in different places.

What was measured:
ASGPR = target: T1, ASGPR (Homo sapiens, UniProt P07306); experiment: ASGPR SPR binding
T1 construct: biotin (biotinylated)
T1 sequence (P07306 1-291): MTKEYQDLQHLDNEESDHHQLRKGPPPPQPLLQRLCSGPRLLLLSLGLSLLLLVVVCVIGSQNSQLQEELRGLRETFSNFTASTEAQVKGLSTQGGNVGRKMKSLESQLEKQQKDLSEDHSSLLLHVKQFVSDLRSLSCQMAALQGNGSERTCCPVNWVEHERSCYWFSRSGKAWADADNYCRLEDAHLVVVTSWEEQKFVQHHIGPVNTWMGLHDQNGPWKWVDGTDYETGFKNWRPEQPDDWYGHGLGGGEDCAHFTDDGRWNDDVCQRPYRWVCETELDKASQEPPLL

HepG2 cells = experiment: Cellular uptake assay (high-content imaging); format: cell-based, human; conditions: 100 nM AF488-labeled antibody, 6 hours at 37° C.
From the text: The cellular uptake assay is designed to measure compound-mediated cellular uptake of fluorescently labeled antibody following ternary complex formation with the ASGPR receptor and endocytosis of the entire complex into cells. The optimal concentration of compound will result in the maximum number of cells with intracellular antibody and is represented as the peak ratio of antibody-positive cells over the total number of cells. As with the ternary complex formation assay, too much or too little compound will result in suboptimal complex formation and fewer cells will have measurable intracellular fluorescence.
Human IgG (Sigma-Aldrich, 14506) was covalently labeled with Alexa Fluor 488 using the Alexa Fluor™ 488 Protein Labeling Kit (Thermo Fisher, A10235) following the manufacturer's instructions. HepG2 cells were plated in DMEM supplemented with 10% FBS at 5,000 cells per well in a 96-well microtiter plate and incubated for approximately 18 hours at 37° C./5% CO2. For studies using human IgG, 100 nM AF488-labeled human IgG antibodies and serial dilutions of IgG-based degrader (0.1% DMSO final concentration) were added to the cells and the mixture was incubated at 37° C. for 6 hours. For studies using DNP, 100 nM AF488-labeled DNP antibodies and serial dilutions of DNP-based degrader (0.1% DMSO final concentration) were added to the cells and the mixture was incubated at 37° C. for 6 hours. HepG2 cells were fixed in 100% methanol at −20° C. for 20 min, washed 3× with PBS, then stained with DAPI (Thermo, Cat #H3570). HepG2 cells were imaged for DAPI and Alexa Fluor 488 using the Operetta CLS, high-content analysis system (PerkinElmer). Data is presented as the ratio of the number of cells positive for hIgG or DNP (AF-488 fluorescence) over the total cell number (measured by DAPI).

IgG = IgG SPR binding
[1] = target: T2, ASGPR receptor on HepG2 cells (ternary complex with AF488-labeled antibody) (Homo sapiens, UniProt P07306); experiment: Ternary complex formation assay (flow cytometry, cell-associated AF488 fluorescence); format: cell-based; conditions: 100 nM AF488-labeled antibody, 1 hour at 4° C.
T2 construct: host or cells: HepG2
T2 sequence (P07306 1-291): T1 sequence (P07306 1-291)
T2 sequence (P07307 1-311 partner): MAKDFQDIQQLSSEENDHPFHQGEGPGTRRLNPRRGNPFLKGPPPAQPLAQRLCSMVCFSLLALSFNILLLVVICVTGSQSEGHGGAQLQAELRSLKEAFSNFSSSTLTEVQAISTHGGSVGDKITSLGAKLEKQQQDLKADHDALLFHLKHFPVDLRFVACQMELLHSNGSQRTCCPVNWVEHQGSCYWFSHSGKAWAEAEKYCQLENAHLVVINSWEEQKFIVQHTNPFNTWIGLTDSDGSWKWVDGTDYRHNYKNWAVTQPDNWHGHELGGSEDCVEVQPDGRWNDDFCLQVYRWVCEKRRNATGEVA

[2] = Table 3, read-out: ASGPR SPR Binding KD
[3] = Homo sapiens, Table 3, class symbols, read-out: Uptake Assay (EC50)
[4] = Table 3, class symbols, read-out: Ternary Complex EC50
[5] = second table, read-out: ASGPR KD
[6] = the 25th table, class symbols, read-out: Uptake EC50
[7] = the 25th table, class symbols, read-out: TCF EC50
[8] = Homo sapiens, the 25th table, class symbols, read-out: Uptake EC50

Row | SMILES | Kd (ASGPR; [5]) [nM] | EC50 (HepG2 cells; [6]) [nM] | Kd (IgG; second table, read-out: IgG KD) [nM] | EC50 [1, 7] [nM] | further results
1 | CC(C)C[C@@H]1NC(=O)[C@H](Cc2cnc[nH]2)NC(=O)[C@H](Cc2c[nH]c3ccccc23)NC(=O)[C@H](C)NC(=O)[C@@H]2CSSC[C@H](NC(=O)[C@H](Cc3c[nH]c4ccccc34)NC(=O)[C@H](C(C)C)NC(=O)[C@H](CC(C)C)NC(=O)[C@H](CCC(=O)O)NC(=O)CNC1=O)C(=O)N[C@@H]([C@@H](C)O)C(=O)N1CCC[C@@H]1C(=O)N1C[C@@H](NC(=O)c3ccc(N4CCC(CN5CCN(C[C@H]6OC[C@H](Nc7nc(C(F)(F)F)ccc7F)[C@@H](O)[C@H]6O)CC5)CC4)cc3)C[C@H]1C(=O)N[C@@H](CC(=O)O)C(=O)N2 [compound 27] | – | – | – | – | Kd (ASGPR; [2]): < 100 nM; EC50 (HepG2 cells; [3]): < 100 nM; Kd (IgG; Table 3, read-out: IgG SPR Binding KD): < 100 nM; EC50 [1, 4]: < 100 nM
2 | CC(C)C[C@@H]1NC(=O)[C@H](Cc2cnc[nH]2)NC(=O)[C@H](Cc2c[nH]c3ccccc23)NC(=O)[C@H](C)NC(=O)[C@@H](NC(=O)[C@H](CC(=O)O)NC(=O)CCOCCOCCOCCOCCNC(=O)CCCc2cn(CCCCCC(=O)NC(CCCCC(=O)NCCOCCOCCOCCOC[C@H]3OC[C@H](Nc4nccc(C(F)(F)F)n4)[C@@H](O)[C@H]3O)COCCC(=O)NCCOCCOCCOCCOC[C@H]3OC[C@H](Nc4nccc(C(F)(F)F)n4)[C@@H](O)[C@H]3O)nn2)CSSC[C@@H](C(=O)N[C@H](C(N)=O)[C@@H](C)O)NC(=O)[C@H](Cc2c[nH]c3ccccc23)NC(=O)[C@H](C(C)C)NC(=O)[C@H](CC(C)C)NC(=O)[C@H](CCC(=O)O)NC(=O)CNC1=O (some centres unmarked) [compound 90] | < 100 | < 100 | < 100 | < 100 | –
3 | CC(C)C[C@@H]1NC(=O)[C@H](Cc2cnc[nH]2)NC(=O)[C@H](Cc2c[nH]c3ccccc23)NC(=O)[C@H](C)NC(=O)[C@@H]2CSSC[C@H](NC(=O)[C@H](Cc3c[nH]c4ccccc34)NC(=O)[C@H](C(C)C)NC(=O)[C@H](CC(C)C)NC(=O)[C@H](CCC(=O)O)NC(=O)CNC1=O)C(=O)N[C@@H]([C@@H](C)O)C(=O)N1CCC[C@@H]1C(=O)N1C[C@@H](NC(=O)CCOCCOCCOCCOCCNC(=O)CCCc3cn(CCCCCC(=O)NC(COCCC(=O)NCCO[C@@H]4O[C@H](CO)[C@H](O)[C@H](O)[C@H]4Nc4cncc(C(F)(F)F)n4)COCCC(=O)NCCO[C@@H]4O[C@H](CO)[C@H](O)[C@H](O)[C@H]4Nc4cncc(C(F)(F)F)n4)nn3)C[C@H]1C(=O)N[C@@H](CC(=O)O)C(=O)N2 [compound 84] | – | < 100 | – | < 100 | –
4 | CC(C)C[C@@H]1NC(=O)[C@H](Cc2cnc[nH]2)NC(=O)[C@H](Cc2c[nH]c3ccccc23)NC(=O)[C@H](C)NC(=O)[C@@H]2CSSC[C@H](NC(=O)[C@H](Cc3c[nH]c4ccccc34)NC(=O)[C@H](C(C)C)NC(=O)[C@H](CC(C)C)NC(=O)[C@H](CCC(=O)O)NC(=O)CNC1=O)C(=O)N[C@@H]([C@@H](C)O)C(=O)N1CCC[C@@H]1C(=O)N1C[C@H](NC(=O)COCCOCC(=O)NC[C@H]3OC[C@H](Nc4cncc(C(F)(F)F)n4)[C@@H](O)[C@H]3O)C[C@H]1C(=O)N[C@@H](CC(=O)O)C(=O)N2 [compound 96] | < 100 | – | < 100 | – | EC50 (HepG2 cells; [8]): < 100 nM
5 | CC(C)C[C@@H]1NC(=O)[C@H](Cc2cnc[nH]2)NC(=O)[C@H](Cc2c[nH]c3ccccc23)NC(=O)[C@H](C)NC(=O)[C@@H]2CSSC[C@H](NC(=O)[C@H](Cc3c[nH]c4ccccc34)NC(=O)[C@H](C(C)C)NC(=O)[C@H](CC(C)C)NC(=O)[C@H](CCC(=O)O)NC(=O)CNC1=O)C(=O)N[C@@H]([C@@H](C)O)C(=O)N1CCC[C@@H]1C(=O)N1C[C@@H](NC(=O)c3ccc4c(c3)C(=O)c3cc(C(=O)NC[C@H]5OC[C@H](Nc6cncc(C(F)(F)F)n6)[C@@H](O)[C@H]5O)ccc3-4)C[C@H]1C(=O)N[C@@H](CC(=O)O)C(=O)N2 [compound 40] | – | – | < 100 | – | EC50 (HepG2 cells; [8]): 100 to 500 nM
6 | COC1O[C@H](Cn2cc(CCCC(=O)N[C@H]3C[C@H]4C(=O)N[C@@H](CC(=O)O)C(=O)N[C@H]5CSSC[C@H](NC(=O)[C@H](Cc6c[nH]c7ccccc67)NC(=O)[C@H](C(C)C)NC(=O)[C@H](CC(C)C)NC(=O)[C@H](CCC(=O)O)NC(=O)CNC(=O)[C@H](CC(C)C)NC(=O)[C@H](Cc6cnc[nH]6)NC(=O)[C@H](Cc6c[nH]c7ccccc67)NC(=O)[C@H](C)NC5=O)C(=O)N[C@@H]([C@@H](C)O)C(=O)N5CCC[C@@H]5C(=O)N4C3)nn2)[C@H](O)[C@H](O)[C@H]1NC(C)=O (some centres unmarked) [compound 80] | – | – | – | – | EC50 (HepG2 cells; Homo sapiens, the 25th table, numeric bounds, nM from footnote, read-out: Uptake EC50): > 10000 nM; EC50 ([1]; the 25th table, numeric bounds, nM from footnote, read-out: TCF EC50): > 4360 nM
7 | CC(C)C[C@@H]1NC(=O)[C@H](Cc2cnc[nH]2)NC(=O)[C@H](Cc2c[nH]c3ccccc23)NC(=O)[C@H](C)NC(=O)[C@@H](NC(=O)[C@H](CC(=O)O)NC(=O)CCOCCOCCOCCOCCNC(=O)CCCc2cn(CCCCCC(=O)NC(COCCC(=O)NCCOCCOCCOCCOC[C@H]3CO[C@H](Nc4cncc(C(F)(F)F)n4)[C@@H](O)[C@H]3O)(COCCC(=O)NCCOCCOCCOCCOC[C@H]3OC[C@H](Nc4nccc(C(F)(F)F)n4)[C@@H](O)[C@H]3O)COCCC(=O)NCCOCCOCCOCCOC[C@H]3OC[C@H](Nc4nccc(C(F)(F)F)n4)[C@@H](O)[C@H]3O)nn2)CSSC[C@@H](C(=O)N[C@H](C(N)=O)[C@@H](C)O)NC(=O)[C@H](Cc2c[nH]c3ccccc23)NC(=O)[C@H](C(C)C)NC(=O)[C@H](CC(C)C)NC(=O)[C@H](CCC(=O)O)NC(=O)CNC1=O [compound 94] | < 100 | < 100 | – | < 100 | –
8 | CC(C)C[C@@H]1NC(=O)[C@H](Cc2cnc[nH]2)NC(=O)[C@H](Cc2c[nH]c3ccccc23)NC(=O)[C@H](C)NC(=O)[C@@H]2CSSC[C@H](NC(=O)[C@H](Cc3c[nH]c4ccccc34)NC(=O)[C@H](C(C)C)NC(=O)[C@H](CC(C)C)NC(=O)[C@H](CCC(=O)O)NC(=O)CNC1=O)C(=O)N[C@@H]([C@@H](C)O)C(=O)N1CCC[C@@H]1C(=O)N1C[C@@H](NC(=O)COCCOCC(=O)NC[C@H]3OC[C@H](Nc4cccc(C(F)(F)F)n4)[C@@H](O)[C@H]3O)C[C@H]1C(=O)N[C@@H](CC(=O)O)C(=O)N2 [compound 25] | – | – | – | – | Kd (ASGPR; [2]): 500 to 1000 nM; EC50 (HepG2 cells; [3]): < 100 nM; EC50 [1, 4]: < 100 nM
9 | CC(C)C[C@@H]1NC(=O)[C@H](Cc2cnc[nH]2)NC(=O)[C@H](Cc2c[nH]c3ccccc23)NC(=O)[C@H](C)NC(=O)[C@@H](NC(=O)[C@H](CC(=O)O)NC(=O)CCOCCCCOCCCCOCCCCOCCNC(=O)CCCc2cn(CCCCCC(=O)NC(COCCC(=O)NCCOCCOCCOCCOC[C@H]3OC[C@H](Nc4nccc(C(F)(F)F)n4)C[C@H]3O)COCCC(=O)NCCOCCOCCOCCOC[C@H]3OC[C@H](Nc4nccc(C(F)(F)F)n4)C[C@H]3O)nn2)CSSC[C@@H](C(=O)N[C@H](C(N)=O)[C@@H](C)O)NC(=O)[C@H](Cc2c[nH]c3ccccc23)NC(=O)[C@H](C(C)C)NC(=O)[C@H](CC(C)C)NC(=O)[C@H](CCC(=O)O)NC(=O)CNC1=O [compound 92] | > 1000 | > 1000 | – | > 1000 | –
